Measurements taken from EP4610269A1, “UROKINASE PLASMINOGEN ACTIVATOR SURFACE RECEPTOR (UPAR) LIGANDS FOR DIAGNOSTIC OR THERAPEUTIC USE” (3B Pharmaceuticals GmbH, priority 2024, dated 2025).
Where a SMILES comes first, the peptide text is derived from it. Bridges are numbered along the chain shown (N, C = ends). [ ]: non-standard residue; d: D form. The star is where a group is joined. Acetyl(4-DOTA-piperazinyl) = O=C(O)CN1CCN(CC(=O)O)CCN(CC(=O)N2CCN(CC(=O)*)CC2)CCN(CC(=O)O)CC1; DOTA = O=C(O)CN1CCN(CC(=O)O)CCN(CC(=O)*)CCN(CC(=O)O)CC1; Pro(trans-4-F) = O=C(O)[C@@H]1C[C@@H](F)CN1; Tyr(3-Cl) = N[C@@H](Cc1ccc(O)c(Cl)c1)C(=O)O; Oic = O=C(O)[C@@H]1C[C@@H]2CCCC[C@@H]2N1; Pro(cis-4-F) = O=C(O)[C@@H]1C[C@H](F)CN1; Hyp = O=C(O)[C@@H]1C[C@@H](O)CN1; hPhe = N[C@@H](CCc1ccccc1)C(=O)O; Pentanoyl(4-Me) = CC(C)CCC(=O)*; Cit = NC(=O)NCCC[C@H](N)C(=O)O; Gly(cPr) = N[C@H](C(=O)O)C1CC1; Propanoyl(3-OEt) = CCOCCC(=O)*; Butoxycarbonyl = CCCCOC(=O)*; NMeK = CN[C@@H](CCCCN)C(=O)O; Api = NC1(C(=O)O)CCNCC1; Nva = CCC[C@H](N)C(=O)O; Deg = CCC(N)(CC)C(=O)O; Pentanoyl = CCCCC(=O)*; Sar = CNCC(=O)O

Key:
[1] = biological target: T1, human uPAR (uPAR-Fc) (Homo sapiens, UniProt Q03405); assay: Surface plasmon resonance (SPR) assay, single cycle kinetics; format: binding; details: pKD category for uPAR SPR activity assay; uPAR-Fc on Protein A-Chip, 25°C; read-out: pKD CAT (converted)
T1 construct: comprising amino acids Leu23-Arg303 according to UniProt entry Q03405.1; purchased R&D Systems 10378-UK-100
T1 sequence (Q03405 23-303): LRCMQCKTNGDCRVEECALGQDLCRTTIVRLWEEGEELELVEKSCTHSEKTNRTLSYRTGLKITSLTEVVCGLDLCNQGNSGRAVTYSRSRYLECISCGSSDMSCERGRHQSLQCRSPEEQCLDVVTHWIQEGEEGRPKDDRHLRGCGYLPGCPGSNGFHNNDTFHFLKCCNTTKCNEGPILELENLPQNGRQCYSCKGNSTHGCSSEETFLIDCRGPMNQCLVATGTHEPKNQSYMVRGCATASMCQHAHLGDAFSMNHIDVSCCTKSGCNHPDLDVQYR
Summary of the method: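 uPAR-Fc (Leu23-Arg303 extracellular domains, human IgG1 Fc) captured on Protein A chip to ~2000 RU; single-cycle kinetics at 25°C in HEPES running buffer pH 7.4 with 0.1% DMSO. KD from double-referenced sensorgrams fitted to 1:1 Langmuir model, reported as pKD.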

[2] = biological target: T2, uPAR-expressing HEC-265 human endometrial adenocarcinoma cells (Homo sapiens, UniProt Q03405); assay: Competitive FACS binding assay; details: pIC50 category of FACS binding
T2 construct: Cell surface uPAR-expressing HEC-265 human endometrial adenocarcinoma cells; host or cells: HEC-265
T2 sequence (Q03405 23-335): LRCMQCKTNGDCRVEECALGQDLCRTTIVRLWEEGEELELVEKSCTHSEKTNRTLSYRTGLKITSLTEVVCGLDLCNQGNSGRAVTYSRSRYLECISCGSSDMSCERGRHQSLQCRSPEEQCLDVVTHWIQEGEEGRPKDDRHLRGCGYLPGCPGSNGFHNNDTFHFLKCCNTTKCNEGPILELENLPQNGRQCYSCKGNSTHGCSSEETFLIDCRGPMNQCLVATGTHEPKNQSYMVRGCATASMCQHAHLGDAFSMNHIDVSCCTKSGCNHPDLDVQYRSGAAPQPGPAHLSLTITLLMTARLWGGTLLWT
Summary of the method: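 HEC-265 cells incubated 1 h at 4 °C with 10 nM biotinylated uPAR peptide tracer plus increasing test compound, then stained with APC-streptavidin on ice. Median APC fluorescence by flow cytometry; 4PL fit gives pIC50.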

Row | SMILES | Kd [1] | IC50 [2]
1 | CCOCCC(=O)N[C@H]1CSSC[C@@H](C(N)=O)NC(=O)[C@H](CC(C)C)NC(=O)[C@H]([C@@H](C)CC)NC(=O)[C@@H](C)NC(=O)[C@@H]2CCCN2C(=O)[C@H](Cc2ccccc2)NC(=O)[C@H](Cc2ccc(O)cc2)NC(=O)[C@H](CCC(N)=O)NC(=O)[C@H](CCCNC(N)=O)NC1=O [UPAR-172, EtOPr-[Cys-Cit-Gln-Tyr-Phe-Pro-ala-Ile-Leu-Cys]-NH2] ({Propanoyl(3-OEt)}-C[Cit]QYFP[dA]ILC-NH2; disulfide 1-10) | 1.58 to 10 nM | ≤ 10 nM
2 | CCCCC(=O)N[C@H]1CSSC[C@@H](C(N)=O)NC(=O)[C@H](CCC)NC(=O)[C@H]([C@@H](C)CC)NC(=O)[C@H](CCCCN)N(C)C(=O)[C@@H]2CCCN2C(=O)[C@H](Cc2ccccc2)NC(=O)[C@H](Cc2ccc(O)cc2)NC(=O)[C@H](CCCCNC(=O)CN2CCN(CC(=O)O)CCN(CC(=O)O)CCN(CC(=O)O)CC2)NC(=O)[C@H](CCCNC(N)=O)NC1=O [UPAR-173, Pent-[Cys-Cit-Lys(DOTA)-Tyr-Phe-Pro-Nmk-Ile-Nva-Cys]-NH2] (Pentanoyl-C[Cit]K(DOTA)YFP[NMeK]I[Nva]C-NH2; disulfide 1-10) | > 100 nM | ≥ 126 nM
3 | CCCCOC(=O)N[C@H]1CSSC[C@@H](C(N)=O)NC(=O)[C@H](CCC)NC(=O)[C@H]([C@@H](C)CC)NC(=O)[C@@H]2C[C@@H](O)CN2C(=O)[C@@H]2C[C@H](F)CN2C(=O)[C@H](Cc2ccccc2)NC(=O)[C@H](Cc2ccc(O)cc2)NC(=O)[C@H](CCCCNC(=O)CN2CCN(C(=O)CN3CCN(CC(=O)O)CCN(CC(=O)O)CCN(CC(=O)O)CC3)CC2)NC(=O)[C@H]([C@@H](C)O)NC1=O [UPAR-181, Butoc-[Cys-Thr-Lys(DOTA-PPAc)-Tyr-Phe-4Cfp-Hyp-Ile-Nva-Cys]-NH2] (Butoxycarbonyl-CTK(Acetyl(4-DOTA-piperazinyl))YF[Pro(cis-4-F)][Hyp]I[Nva]C-NH2; disulfide 1-10) | < 1.58 nM | ≤ 10 nM
4 | CC[C@H](C)[C@@H]1NC(=O)[C@@H](C)NC(=O)[C@@H]2CCCN2C(=O)[C@H](Cc2ccccc2)NC(=O)[C@H](Cc2ccc(O)cc2)NC(=O)[C@H](CCC(N)=O)NC(=O)[C@H](CCCNC(N)=O)NC(=O)[C@@H](NC(=O)CCC(C)C)CSSC[C@@H](C(N)=O)NC(=O)[C@H](C(C)C)NC1=O [UPAR-184, iHex-[Cys-Cit-Gln-Tyr-Phe-Pro-ala-Ile-Val-Cys]-NH2] ({Pentanoyl(4-Me)}-C[Cit]QYFP[dA]IVC-NH2; disulfide 1-10) | 1.58 to 10 nM | ≤ 10 nM
5 | CC[C@H](C)[C@@H]1NC(=O)[C@@H](C)NC(=O)[C@@H]2CCCN2C(=O)[C@H](Cc2ccccc2)NC(=O)[C@H](Cc2ccc(O)c(Cl)c2)NC(=O)[C@H](CCC(N)=O)NC(=O)[C@H](CCCNC(N)=O)NC(=O)[C@@H](NC(=O)CCC(C)C)CSSC[C@@H](C(N)=O)NC(=O)[C@H](CC(C)C)NC1=O [UPAR-188, iHex-[Cys-Cit-Gln-Mcy-Phe-Pro-ala-Ile-Leu-Cys]-NH2] ({Pentanoyl(4-Me)}-C[Cit]Q[Tyr(3-Cl)]FP[dA]ILC-NH2; disulfide 1-10) | < 1.58 nM | ≤ 10 nM
6 | CCCCC(=O)N[C@H]1CSSC[C@@H](C(N)=O)NC(=O)[C@H](CCC)NC(=O)[C@H]([C@@H](C)CC)NC(=O)[C@@H]2C[C@@H]3CCCC[C@@H]3N2C(=O)[C@@H]2CCCN2C(=O)[C@H](Cc2ccccc2)NC(=O)[C@H](Cc2ccc(O)cc2)NC(=O)[C@H](CCC(N)=O)NC(=O)[C@H](CCCNC(=N)N)NC1=O [UPAR-190, Pent-[Cys-Arg-Gln-Tyr-Phe-Pro-Oic-Ile-Nva-Cys]-NH2] (Pentanoyl-CRQYFP[Oic]I[Nva]C-NH2; disulfide 1-10) | < 1.58 nM | 12.6 to 31.6 nM

Continued, values first:

Row | Kd [1] | IC50 [2] | SMILES
7 | 1.58 to 10 nM | ≤ 10 nM | CCCCC(=O)N[C@H]1CSSC[C@@H](C(N)=O)NC(=O)[C@H](CCC)NC(=O)[C@H]([C@@H](C)CC)NC(=O)CN(C)C(=O)[C@@H]2CCCN2C(=O)[C@H](Cc2ccccc2)NC(=O)[C@H](Cc2ccc(O)cc2)NC(=O)[C@H](CCCCNC(=O)CN2CCN(CC(=O)O)CCN(CC(=O)O)CCN(CC(=O)O)CC2)NC(=O)[C@H](CCCNC(N)=O)NC1=O [UPAR-177, Pent-[Cys-Cit-Lys(DOTA)-Tyr-Phe-Pro-Nmg-Ile-Nva-Cys]-NH2] (Pentanoyl-C[Cit]K(DOTA)YFP[Sar]I[Nva]C-NH2; disulfide 1-10)
8 | 1.58 to 10 nM | ≤ 10 nM | CC[C@H](C)[C@@H]1NC(=O)[C@@H](C)NC(=O)[C@@H]2C[C@@H](F)CN2C(=O)[C@H](Cc2ccccc2)NC(=O)[C@H](Cc2ccc(O)cc2)NC(=O)[C@H](CCC(N)=O)NC(=O)[C@H](CCCNC(N)=O)NC(=O)[C@@H](NC(=O)CCC(C)C)CSSC[C@@H](C(N)=O)NC(=O)[C@H](CC(C)C)NC1=O [UPAR-178, iHex-[Cys-Cit-Gln-Tyr-Phe-4Tfp-ala-Ile-Leu-Cys]-NH2] ({Pentanoyl(4-Me)}-C[Cit]QYF[Pro(trans-4-F)][dA]ILC-NH2; disulfide 1-10)
9 | > 100 nM | ≥ 126 nM | CCCCC(=O)N[C@H]1CSSC[C@@H](C(N)=O)NC(=O)[C@H](CCC)NC(=O)C(CC)(CC)NC(=O)[C@@H]2C[C@@H](O)CN2C(=O)[C@@H]2CCCN2C(=O)[C@H](Cc2ccccc2)NC(=O)[C@H](Cc2ccc(O)cc2)NC(=O)[C@H](CCC(N)=O)NC(=O)[C@H](CCCNC(=N)N)NC1=O [UPAR-179, Pent-[Cys-Arg-Gln-Tyr-Phe-Pro-Hyp-Deg-Nva-Cys]-NH2] (Pentanoyl-CRQYFP[Hyp][Deg][Nva]C-NH2; disulfide 1-10)
10 | > 100 nM | ≥ 126 nM | CC[C@H](C)[C@@H]1NC(=O)[C@@H](C)NC(=O)[C@@H]2CCCN2C(=O)[C@H](CCc2ccccc2)NC(=O)[C@H](Cc2ccc(O)cc2)NC(=O)[C@H](CCC(N)=O)NC(=O)[C@H](CCCNC(N)=O)NC(=O)[C@@H](NC(=O)CCC(C)C)CSSC[C@@H](C(N)=O)NC(=O)[C@H](CC(C)C)NC1=O [UPAR-180, iHex-[Cys-Cit-Gln-Tyr-Hfe-Pro-ala-Ile-Leu-Cys]-NH2] ({Pentanoyl(4-Me)}-C[Cit]QY[hPhe]P[dA]ILC-NH2; disulfide 1-10)
11 | < 1.58 nM | ≤ 10 nM | CCCCC(=O)N[C@H]1CSSC[C@@H](C(N)=O)NC(=O)[C@H](CCC)NC(=O)[C@H]([C@@H](C)CC)NC(=O)[C@@H]2C[C@@H](O)CN2C(=O)[C@@H]2CCCN2C(=O)[C@H](Cc2ccccc2)NC(=O)[C@H](Cc2ccc(O)cc2)NC(=O)[C@H](CCC(N)=O)NC(=O)C2(CCNCC2)NC1=O [UPAR-186, Pent-[Cys-Apc-Gln-Tyr-Phe-Pro-Hyp-Ile-Nva-Cys]-NH2] (Pentanoyl-C[Api]QYFP[Hyp]I[Nva]C-NH2; disulfide 1-10)
12 | > 100 nM | ≥ 126 nM | CC(C)CCC(=O)N[C@H]1CSSC[C@@H](C(N)=O)NC(=O)[C@H](CC(C)C)NC(=O)[C@H](C2CC2)NC(=O)[C@@H](C)NC(=O)[C@@H]2CCCN2C(=O)[C@H](Cc2ccccc2)NC(=O)[C@H](Cc2ccc(O)cc2)NC(=O)[C@H](CCC(N)=O)NC(=O)[C@H](CCCNC(N)=O)NC1=O [UPAR-187, iHex-[Cys-Cit-Gln-Tyr-Phe-Pro-ala-Cpa-Leu-Cys]-NH2] ({Pentanoyl(4-Me)}-C[Cit]QYFP[dA][Gly(cPr)]LC-NH2; disulfide 1-10)
